Data published in US5317086A, “Cysteine proteinase inhibitors and inhibitor precursors” (The Regents of the University of California, priority 1992, dated 1994).
Non-standard residues stand in square brackets, D forms with d. Residues, ends and D or L forms follow the SMILES beside them. ξ: configuration not given here. *: point of attachment. MeOSuc = COC(=O)CCC(=O)*; ξF = NC(Cc1ccccc1)C(=O)O

Target: T1, papain (Carica papaya, UniProt P00784)
T1 construct: purchased Sigma
T1 sequence (P00784 134-345): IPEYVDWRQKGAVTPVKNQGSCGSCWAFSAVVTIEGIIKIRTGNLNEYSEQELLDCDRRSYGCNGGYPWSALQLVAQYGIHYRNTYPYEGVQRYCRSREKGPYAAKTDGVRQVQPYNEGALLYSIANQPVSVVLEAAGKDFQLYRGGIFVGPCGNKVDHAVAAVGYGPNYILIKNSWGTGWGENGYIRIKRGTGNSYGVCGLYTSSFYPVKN
Assay: Irreversible inhibition of papain (preincubation and 3000-fold dilution assay)
Type: biochemical
Conditions: control; 0.020 μM (666Ki) incubated with papain, diluted to (0.2 Ki); over 2.5 hr
Method: Papain (Sigma, 2x recrystallized) (1 mg/mL) was activated at 25° C. for 30 min prior to use in a solution of 0.1mM EDTA, 0.5 mM L-cysteine hydrochloride, and 0.06 mM mercaptoethanol, and was then diluted (20 μL to 1.0 mL) and stored at 4° C. for use in the assays. The cysteine and mercaptoethanol buffers were prepared fresh daily. The standard assay conditions consisted of 50 mM phosphate, 0.2 M NaCl, 5 mM EDTA, 2 mM dithiothreitol (DTT), 0.2% bovine serum albumin (BSA) and 20% CH3 CN, pH 6.5. However, these concentrations were obtained by dilution of a buffer of 100 mM phosphate, 0.4 M NaCl, 10 mM EDTA, 4 mM DTT at pH 6.5 to a final volume of 1 mL with the necessary amounts of CH3 CN and H2 O. The DTT and BSA were added fresh daily to the phosphate buffer. Kinetic measurements were performed by monitoring the fluorescence of 7-amino-4-methylcoumarin (MCA) [1 (excitation) 350 nm, 1 (emission) 460 nm] released upon hydrolysis of the substrate, CbzPheArgMCA. […] The Km was determined in duplicate runs by fitting rate vs. [S] using the program ENZFITTER. […]
The incomplete deactivation can be attributed to the increasing amounts of aldehyde present over time, which as a reversible inhibitor protects papain against alkylation. The dilution assay also provided evidence that the inhibition measured in the reversible assay was not due to trace amounts of aldehyde contamination. […]

In the case of COC(=O)CCC(=O)NC(Cc1ccccc1)C(=O)NCC=O (stereo not shown) [MeOSucPheGlyCHO] (MeOSuc-[ξF]-Gly-aldehyde), the “loss of papain activity” value is reported as 8%.
